In brackets after ≈: the same amount, converted by molar mass.
Experiment: solubility of acetaminophen in recrystallisation solvent (50% water and 50% methanol)
Assay type: physicochemical
Conditions: aqueous with cosolvent or surfactant or cyclodextrin; solvent mixture of 50% water and 50% methanol by volume, heated to near boiling
Method: Heat the reaction mixture at about 115° C. with stirring for about 10 minutes to complete the reaction. Once complete, cool the mixture thoroughly in an ice bath for 15-20 minutes and collect the crystals by vacuum filtration on a Hirsch funnel. To decolorize the crude product, dissolve 0.2 g of sodium dithionite (sodium hydrosulfite) in 1.5 mL of water in a 5-mL conical vial. Add the crude acetaminophen to the vial. Heat the mixture at about 100° C. for 15 minutes, with occasional stirring. Cool the mixture to precipitate the decolorized acetaminophen. To purify the decolorized product, dissolve the material in a solvent mixture composed of 50% water and 50% methanol by volume, heated to boiling. The solubility of acetaminophen in the near-boiling solvent is about 0.2 g/mL. Cool the solution to precipitate the acetaminophen.

solubility: ~200 mg/mL (≈ 1320 mM)
Compound: CC(=O)Nc1ccc(O)cc1 [acetaminophen, N-acetyl-p-aminophenol]

— patent US10286504B2, “Synthesis of paracetamol (acetaminophen) from biomass-derived p-hydroxybenzamide” (Wisconsin Alumni Research Foundation, priority 2017, dated 2019)
